# Experimental data from US10023570B2 (Array BioPharma, Inc., priority 2015, dated 2018).
# pIC50: −log10 of the molar value. Where “and” joins values, the source holds several entries; their conditions need not be identical. Identical values can stand only once. Counter-ions that a name gives are not always drawn.
# Target: human KDR protein in HEK-293 cells (Homo sapiens (Human), UniProt P35968)
# Experiment: KDR Cell Assay (phospho-KDR in HEK-293 cells expressing inducible KDR)
# Assay type: cell-based
# Details: pKDR Cell HEK 10% FBS IC50, HEK-293 cells expressing inducible KDR, VEGF stimulated
# Summary of the method: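 HEK-293 cells with inducible human KDR were treated with compound for 1 h in DMEM (0.25% DMSO final), then lysed. Phospho-KDR was quantified by Meso Scale immunoassay, expressed as percent of control, and IC50 taken where a 4-parameter logistic fit crossed 50 POC.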
# Sequence of human KDR protein in HEK-293 cells (P35968 20-1356): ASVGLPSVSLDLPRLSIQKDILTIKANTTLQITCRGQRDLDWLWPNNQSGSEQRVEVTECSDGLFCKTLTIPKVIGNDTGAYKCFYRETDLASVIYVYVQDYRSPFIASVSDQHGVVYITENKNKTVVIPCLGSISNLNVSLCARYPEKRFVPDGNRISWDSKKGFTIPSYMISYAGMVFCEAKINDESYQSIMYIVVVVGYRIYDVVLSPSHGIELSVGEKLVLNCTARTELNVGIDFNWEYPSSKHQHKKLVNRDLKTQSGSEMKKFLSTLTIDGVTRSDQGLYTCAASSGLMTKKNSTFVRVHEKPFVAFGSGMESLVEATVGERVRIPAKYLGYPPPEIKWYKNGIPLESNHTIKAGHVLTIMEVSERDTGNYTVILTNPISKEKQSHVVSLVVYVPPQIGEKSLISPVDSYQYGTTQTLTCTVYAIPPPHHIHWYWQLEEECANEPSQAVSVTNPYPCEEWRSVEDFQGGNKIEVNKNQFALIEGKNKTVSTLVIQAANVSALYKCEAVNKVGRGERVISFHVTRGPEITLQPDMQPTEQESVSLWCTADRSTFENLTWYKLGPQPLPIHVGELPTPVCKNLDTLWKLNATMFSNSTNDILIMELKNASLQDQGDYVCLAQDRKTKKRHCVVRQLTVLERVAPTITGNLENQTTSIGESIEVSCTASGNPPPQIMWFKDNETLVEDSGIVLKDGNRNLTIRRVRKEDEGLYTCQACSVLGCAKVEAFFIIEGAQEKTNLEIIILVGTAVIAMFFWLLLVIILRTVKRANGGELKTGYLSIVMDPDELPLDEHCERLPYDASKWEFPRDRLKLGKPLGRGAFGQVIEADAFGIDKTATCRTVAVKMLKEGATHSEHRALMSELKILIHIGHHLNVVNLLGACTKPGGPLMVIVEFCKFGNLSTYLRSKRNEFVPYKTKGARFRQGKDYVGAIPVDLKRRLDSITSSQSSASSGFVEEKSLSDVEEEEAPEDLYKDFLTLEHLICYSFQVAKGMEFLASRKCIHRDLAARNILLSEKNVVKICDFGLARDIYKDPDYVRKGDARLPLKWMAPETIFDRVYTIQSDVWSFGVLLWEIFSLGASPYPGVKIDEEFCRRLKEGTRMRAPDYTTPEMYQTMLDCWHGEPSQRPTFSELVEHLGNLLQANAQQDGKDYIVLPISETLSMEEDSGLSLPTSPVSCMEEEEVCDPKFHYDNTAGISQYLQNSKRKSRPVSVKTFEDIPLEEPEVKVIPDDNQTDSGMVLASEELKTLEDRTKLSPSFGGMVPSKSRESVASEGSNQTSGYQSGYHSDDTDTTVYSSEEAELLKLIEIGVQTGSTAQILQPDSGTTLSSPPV
row,SMILES,pIC50
1,"Cn1cc(-c2cc(-c3ccc(N4CC5CCC(C4)N5Cc4ccccc4)nc3)c3c(C#N)cnn3c2)cn1 [Example 484, 4-(6-(8-benzyl-3,8-diazabicyclo[3.2.1]octan-3-yl)pyridin-3-yl)-6-(1-methyl-1H-pyrazol-4-yl)pyrazolo[1,5-a]pyridine-3-carbonitrile]",6.68
2,"Cn1cc(-c2cc(-c3ccc(N4C[C@@H]5C[C@H]4CN5Cc4ccccc4)nc3)c3c(C#N)cnn3c2)cn1 [Example 483, 4-(6-((1S,4S)-5-benzyl-2,5-diazabicyclo[2.2.1]heptan-2-yl)pyridin-3-yl)-6-(1-methyl-1H-pyrazol-4-yl)pyrazolo[1,5-a]pyridine-3-carbonitrile]",7.11
3,"Cn1cc(-c2cc(-c3ccc(N4CCCC5(CCNCC5)C4)nc3)c3c(C#N)cnn3c2)cn1 [Example 540, 4-(6-(2,9-diazaspiro[5.5]undecan-2-yl)pyridin-3-yl)-6-(1-methyl-1H-pyrazol-4-yl)pyrazolo[1,5-a]pyridine-3-carbonitrile dihydrochloride]",5.91
4,"Cn1cc(-c2cc(-c3ccc(N4CCC(Cc5ccc(Cl)cc5)CC4)nc3)c3c(C#N)cnn3c2)cn1 [Example 536, 4-(6-(4-(4-chlorobenzyl)piperidin-1-yl)pyridin-3-yl)-6-(1-methyl-1H-pyrazol-4-yl)pyrazolo[1,5-a]pyridine-3-carbonitrile]",6.10 and 6.18
5,"Cn1cc(-c2cc(-c3ccc(N4CCC5(CN(Cc6ccccc6)C5)C4)nc3)c3c(C#N)cnn3c2)cn1 [Example 558, 4-(6-(2-benzyl-2,6-diazaspiro[3.4]octan-6-yl)pyridin-3-yl)-6-(1-methyl-1H-pyrazol-4-yl)pyrazolo[1,5-a]pyridine-3-carbonitrile]",6.26
6,"Cn1cc(-c2cc(-c3ccc(N4CCN(Cc5nccn5C)CC4)nc3)c3c(C#N)cnn3c2)cn1 [Example 437, 4-(6-(4-((1-methyl-1H-imidazol-2-yl)methyl)piperazin-1-yl)pyridin-3-yl)-6-(1-methyl-1H-pyrazol-4-yl)pyrazolo[1,5-a]pyridine-3-carbonitrile]",5.71
7,"CN(C)c1ccccc1CN1CCN(c2ccc(-c3cc(-c4cnn(C)c4)cn4ncc(C#N)c34)cn2)CC1 [Example 460, 4-(6-(4-(2-(dimethylamino)benzyl)piperazin-1-yl)pyridin-3-yl)-6-(1-methyl-1H-pyrazol-4-yl)pyrazolo[1,5-a]pyridine-3-carbonitrile]",5.75
8,"Cc1cnc(CN2CCN(c3ccc(-c4cc(-c5cnn(C)c5)cn5ncc(C#N)c45)cn3)CC2)cn1 [Example 444, 6-(1-methyl-1H-pyrazol-4-yl)-4-(6-(4-((5-methylpyrazin-2-yl)methyl)piperazin-1-yl)pyridin-3-yl)pyrazolo[1,5-a]pyridine-3-carbonitrile]",5.89
9,"Cn1cc(-c2cc(-c3ccc(N4CC5(CCOCC5)C4)nc3)c3c(C#N)cnn3c2)cn1 [Example 527, 4-(6-(7-oxa-2-azaspiro[3.5]nonan-2-yl)pyridin-3-yl)-6-(1-methyl-1H-pyrazol-4-yl)pyrazolo[1,5-a]pyridine-3-carbonitrile 2,2,2-trifluoroacetate]",6.04
10,"Cn1cc(-c2cc(-c3ccc(N4CCN(Cc5c(F)cccc5F)CC4)nc3)c3c(C#N)cnn3c2)cn1 [Example 441, 4-(6-(4-(2,6-difluorobenzyl)piperazin-1-yl)pyridine-3-yl)-6-(1-methyl-1H-pyrazol-4-yl)pyrazolo[1,5-a]pyridine-3-carbonitrile]",6.24
11,"CN(C)c1ccc(CN2CCN(c3ccc(-c4cc(-c5cnn(C)c5)cn5ncc(C#N)c45)cn3)CC2)cc1 [Example 461, 4-(6-(4-(4-(dimethylamino)benzyl)piperazin-1-yl)pyridin-3-yl)-6-(1-methyl-1H-pyrazol-4-yl)pyrazolo[1,5-a]pyridine-3-carbonitrile]",6.89

# The remaining lines, values ahead:
row,pIC50,SMILES
1,5.72,"CN1CCCC2(CCN(c3ccc(-c4cc(-c5cnn(C)c5)cn5ncc(C#N)c45)cn3)CC2)C1 [Example 556, 6-(1-methyl-1H-pyrazol-4-yl)-4-(6-(2-methyl-2,9-diazaspiro[5.5]undecan-9-yl)pyridin-3-yl)pyrazolo[1,5-a]pyridine-3-carbonitrile]"
2,5.98,"Cn1cc(-c2cc(-c3ccc(N4CCN(C(=O)N5CC6C(C5)C6(C)C)CC4)nc3)c3c(C#N)cnn3c2)cn1 (stereo not shown) [Example 384, 4-(6-(4-(6,6-dimethyl-3-azabicyclo[3.1.0]hexane-3-carbonyl)piperazin-1-yl)pyridin-3-yl)-6-(1-methyl-1H-pyrazol-4-yl)pyrazolo[1,5-a]pyridine-3-carbonitrile]"
3,5.72,"Cn1cc(-c2cc(-c3ccc(N4CCN(CC(F)(F)F)CC4)nc3)c3c(C#N)cnn3c2)cn1 [Example 419, 6-(1-methyl-1H-pyrazol-4-yl)-4-(6-(4-(2,2,2-trifluoroethyl)piperazin-1-yl)pyridin-3-yl)pyrazolo[1,5-a]pyridine-3-carbonitrile]"
4,5.98,"Cn1cc(-c2cc(-c3ccc(N4CCC5(CCN(C(=O)OC(C)(C)C)CC5)CC4)nc3)c3c(C#N)cnn3c2)cn1 [Example 511, tert-butyl 9-(5-(3-cyano-6-(1-methyl-1H-pyrazol-4-yl)pyrazolo[1,5-a]pyridin-4-yl)pyridin-2-yl)-3,9-diazaspiro[5.5]undecane-3-carboxylate]"
5,6.33,"Cn1cc(-c2cc(-c3ccc(N4CCN(C(=O)N5CC[C@H](c6ccccc6)C5)CC4)nc3)c3c(C#N)cnn3c2)cn1 [Example 378, (R)-6-(1-methyl-1H-pyrazol-4-yl)-4-(6-(4-(3-phenylpyrrolidine-1-carbonyl)piperazin-1-yl)pyridin-3-yl)pyrazolo[1,5-a]pyridine-3-carbonitrile]"

# Same assay, conditions: pKDR Cell HEK 10% FBS IC50, HEK-293 cells expressing inducible KDR, VEGF stimulated, 10% FBS
row,SMILES,pIC50
1,"Cn1cc(-c2cc(-c3ccc(N4CCN(C(=O)C5(c6ccccc6)CCOCC5)CC4)nc3)c3c(C#N)cnn3c2)cn1 [Example 342, 6-(1-methyl-1H-pyrazol-4-yl)-4-(6-(4-(4-phenyltetrahydro-2H-pyran-4-carbonyl)piperazin-1-yl)pyridin-3-yl)pyrazolo[1,5-a]pyridine-3-carbonitrile]",5.32
2,"Cn1cc(-c2cc(-c3ccc(N4CCN(C(=O)Cc5ccn(C)n5)CC4)nc3)c3c(C#N)cnn3c2)cn1 [Example 42, 4-(6-(4-(2-(1-methyl-1H-pyrazol-3-yl)acetyl)piperazin-1-yl)pyridin-3-yl)-6-(1-methyl-1H-pyrazol-4-yl)pyrazolo[1,5-a]pyridine-3-carbonitrile 2,2,2-trifluoroacetate]",6.30
3,"Cn1cc(-c2cc(-c3ccc(N4CCN(C[C@@H](O)c5ccccc5)CC4)nc3)c3c(C#N)cnn3c2)cn1 [Example 162, (S)-4-(6-(4-(2-hydroxy-2-phenylethyl)piperazin-1-yl)pyridin-3-yl)-6-(1-methyl-1H-pyrazol-4-yl)pyrazolo[1,5-a]pyridine-3-carbonitrile]",7.38
4,"Cn1cc(-c2cc(-c3ccc(N4CCN(C(=O)Cc5ccc(C#N)cc5)CC4)nc3)c3c(C#N)cnn3c2)cn1 [Example 365, 4-(6-(4-(2-(4-cyanophenyl)acetyl)piperazin-1-yl)pyridin-3-yl)-6-(1-methyl-1H-pyrazol-4-yl)pyrazolo[1,5-a]pyridine-3-carbonitrile 2,2,2-trifluoroacetate]",6.22
5,"Cn1cc(-c2cc(-c3ccc(N4CC5CCC(C4)N5C(=O)OC(C)(C)C)nc3)c3c(C#N)cnn3c2)cn1 [Example 173, tert-butyl 3-(5-(3-cyano-6-(1-methyl-1H-pyrazol-4-yl)pyrazolo[1,5-a]pyridin-4-yl)pyridin-2-yl)-3,8-diazabicyclo[3.2.1]octane-8-carboxylate]",5.90
6,"C[C@H](O)Cn1cc(-c2cc(-c3ccc(N4CCN(C(=O)CC(C)(C)C)CC4)cc3)c3c(C#N)cnn3c2)cn1 [Example 304, (S)-4-(4-(4-(3,3-dimethylbutanoyl)piperazin-1-yl)phenyl)-6-(1-(2-hydroxypropyl)-1H-pyrazol-4-yl)pyrazolo[1,5-a]pyridine-3-carbonitrile]",5.79
7,Cn1cc(-c2cc(-c3ccc(N4CCN(C(=O)[C@@H](O)Cc5ccccc5)CC4)nc3)c3c(C#N)cnn3c2)cn1 [Example 4],6.48

# Second part, the molecule after the results:
row,pIC50,SMILES
1,5.78,"Cn1cc(-c2cc(-c3ccc(N4CCN(C(=O)C5(c6ccc(Cl)cc6Cl)CC5)CC4)nc3)c3c(C#N)cnn3c2)cn1 [Example 343, 4-(6-(4-(1-(2,4-dichlorophenyl)cyclopropanecarbonyl)piperazin-1-yl)pyridin-3-yl)-6-(1-methyl-1H-pyrazol-4-yl)pyrazolo[1,5-a]pyridine-3-carbonitrile]"
2,5.87,"Cn1cc(-c2cc(-c3ccc(N4CCN(C(=O)C5CCOCC5)CC4)nc3)c3c(C#N)cnn3c2)cn1 [Example 74, 6-(1-methyl-1H-pyrazol-4-yl)-4-(6-(4-(tetrahydro-2H-pyran-4-carbonyl)piperazin-1-yl)pyridin-3-yl)pyrazolo[1,5-a]pyridine-3-carbonitrile]"
3,5.89,"Cn1cc(-c2cc(-c3ccc(N4CCN([C@@H]5COC[C@H]5O)CC4)nc3)c3c(C#N)cnn3c2)cn1 [Example 159, 4-(6-(4-((3r,4s)-4-hydroxytetrahydrofuran-3-yl)piperazin-1-yl)pyridin-3-yl)-6-(1-methyl-1H-pyrazol-4-yl)pyrazolo[1,5-a]pyridine-3-carbonitrile]"
4,6.53,"Cn1cc(-c2cc(-c3ccc(N4CCN(C(=O)c5cccnc5)CC4)nc3)c3c(C#N)cnn3c2)cn1 [Example 73, 6-(1-methyl-1H-pyrazol-4-yl)-4-(6-(4-nicotinoylpiperazin-1-yl)pyridin-3-yl)pyrazolo[1,5-a]pyridine-3-carbonitrile]"
5,6.59,"Cn1cc(-c2cc(-c3ccc(N4CCC(N5CCCC5=O)CC4)nc3)c3c(C#N)cnn3c2)cn1 [Example 189, 6-(1-methyl-1H-pyrazol-4-yl)-4-(6-(4-(2-oxopyrrolidin-1-yl)piperidin-1-yl)pyridin-3-yl)pyrazolo[1,5-a]pyridine-3-carbonitrile]"
